# Assay results from article doi:10.1101/2021.11.01.466777v1 (bioRxiv, 2021).
# Starred links: 1 amine or outer side, 2 acyl side, 3 side chain; linkers in the order of their positions; H or OH if unused. Positions of bridges follow the written chain, without caps; N, C: chain ends. Non-standard residues stand in square brackets, D forms with d. Residues, ends and D or L forms follow the SMILES beside them. *: point of attachment. dAsp(3R-OH) = N[C@@H](C(=O)O)[C@@H](O)C(=O)O; X1 = NC[C@H](O)[C@@H](N[*:1])C(=O)[*:2]; X2 = CCC(C)(O)[C@H](N[*:1])C(=O)[*:2]; d(aIle) = CC[C@H](C)[C@@H](N)C(=O)O; d(aThr) = C[C@@H](O)[C@@H](N)C(=O)O; Myristoyl = CCCCCCCCCCCCCC(=O)*; dOrn = NCCC[C@@H](N)C(=O)O; hSer = N[C@@H](CCO)C(=O)O
# Columns and labels:
# [1] = Pharmacokinetics after IV slow bolus in uninfected mice; assay type: in vivo, mouse (female BALB/c); details: 5 mg/kg IV; for Plasma concentration, Mean: mean of n = 3
# [2] = tested on: neutropenic female BALB/c mice; assay: Toxicity and Maximum Tolerated Dose; assay type: in vivo, mouse
# [3] = human volunteers; no reference given; cited from earlier work
compound,measurement,setting,value
CCCCCCCCCCCCCC(=O)N[C@H](CCCN)C(=O)N[C@@H](CO)C(=O)N[C@H](C(=O)N[C@@H](C(=O)N[C@@H](C(=O)N[C@H]1C(=O)NCC(=O)N[C@@H](C(C)(O)CC)C(=O)N[C@H]([C@@H](C)CC)C(=O)N[C@@H](CCO)C(=O)N[C@@H](C)C(=O)N[C@H]([C@@H](C)CC)C(=O)N[C@@H](CCC(=O)O)C(=O)O[C@@H]1C)[C@@H](O)CN)[C@@H](O)C(=O)O)C(C)C (stereo partly drawn) [turnercyclamycin A] (Myristoyl-[dOrn]SV[dAsp(3R-OH)][X1][d(aThr)]G[X2][d(aIle)][hSer]A[d(aIle)]E; ester 6-C),"Plasma concentration, Mean",[1]; 0.05 h,53333 ng/mL
same,Sample concentration in plasma,"[1]; 0.05 h, sample 1, LC-MS/MS",52235 ng/mL
same,Sample concentration in plasma,"[1]; 0.05 h, sample 2, LC-MS/MS",51887 ng/mL
same,Sample concentration in plasma,"[1]; 0.05 h, sample 3, LC-MS/MS",55877 ng/mL
same,"Plasma concentration, Mean",[1]; 0.167 h,38646 ng/mL
same,Sample concentration in plasma,"[1]; 0.167 h, sample 1, LC-MS/MS",36107 ng/mL
same,Sample concentration in plasma,"[1]; 0.167 h, sample 2, LC-MS/MS",38906 ng/mL
same,Sample concentration in plasma,"[1]; 0.167 h, sample 3, LC-MS/MS",40924 ng/mL
same,"Plasma concentration, Mean",[1]; 1 h,29269 ng/mL
same,Sample concentration in plasma,"[1]; 1 h, sample 1, LC-MS/MS",24635 ng/mL
same,Sample concentration in plasma,"[1]; 1 h, sample 3, LC-MS/MS",29337 ng/mL
same,"Plasma concentration, Mean",[1]; 2 h,26200 ng/mL
same,Sample concentration in plasma,"[1]; 2 h, sample 1, LC-MS/MS",26373 ng/mL
same,Sample concentration in plasma,"[1]; 2 h, sample 2, LC-MS/MS",25446 ng/mL
same,Sample concentration in plasma,"[1]; 2 h, sample 3, LC-MS/MS",26782 ng/mL
same,"Plasma concentration, Mean",[1]; 4 h,22542 ng/mL
same,Sample concentration in plasma,"[1]; 4 h, sample 1, LC-MS/MS",22923 ng/mL
same,Sample concentration in plasma,"[1]; 4 h, sample 2, LC-MS/MS",22209 ng/mL
same,Sample concentration in plasma,"[1]; 4 h, sample 3, LC-MS/MS",22495 ng/mL
same,"Plasma concentration, Mean",[1]; 8 h,11971 ng/mL
same,Sample concentration in plasma,"[1]; 8 h, sample 1, LC-MS/MS",11661 ng/mL
same,Sample concentration in plasma,"[1]; 8 h, sample 2, LC-MS/MS",13130 ng/mL
same,Sample concentration in plasma,"[1]; 8 h, sample 3, LC-MS/MS",11123 ng/mL
same,"Plasma concentration, Mean",[1]; 24 h,931 ng/mL
same,Sample concentration in plasma,"[1]; 24 h, sample 1, LC-MS/MS",974 ng/mL
same,Sample concentration in plasma,"[1]; 24 h, sample 2, LC-MS/MS",764 ng/mL
same,Sample concentration in plasma,"[1]; 24 h, sample 3, LC-MS/MS",1054 ng/mL
same,CL,"[1]; mouse plasma, NCA",0.29 mL/min/kg
same,Sample concentration in plasma,"[1]; time printed 0 h, sample 1, LC-MS/MS",34373 ng/mL
same,Sample concentration in plasma,"[1]; time printed 0 h, sample 2, LC-MS/MS",31954 ng/mL
same,Sample concentration in plasma,"[1]; time printed 0 h, sample 3, LC-MS/MS",34645 ng/mL
same,body weight change,"[2]; 25 mg/kg (printed mg/mL) IV BID q12h, 24 hours after first treatment",no body weight drop was observed
same,mortality,"[2]; 25 mg/kg (printed mg/mL) IV BID q12h, n = 3",did not induce mortality in any mice
same,Body Weight,"[2]; 25 mg/kg IV bid (q12h) x1, mouse No. 7, Day 0 (first)",17 g
same,Body Weight,"[2]; 25 mg/kg IV bid (q12h) x1, mouse No. 7, Day 1",17 g
same,Body Weight,"[2]; 25 mg/kg IV bid (q12h) x1, mouse No. 8, Day 0 (first)",17 g
same,Body Weight,"[2]; 25 mg/kg IV bid (q12h) x1, mouse No. 8, Day 1",17 g
same,body weight change,"[2]; 50 mg/kg (printed mg/mL) IV BID q12h, 24 hours post-treatment",slight body weight losses were observed
same,mortality,"[2]; 50 mg/kg (printed mg/mL) IV BID q12h, n = 3",did not induce mortality in any mice
same,Body Weight,"[2]; 50 mg/kg IV bid (q12h) x1, mouse No. 4, Day 0 (first)",16 g
same,Body Weight,"[2]; 50 mg/kg IV bid (q12h) x1, mouse No. 4, Day 0 (second)",15 g
same,Body Weight,"[2]; 50 mg/kg IV bid (q12h) x1, mouse No. 4, Day 1",15 g
same,Body Weight,"[2]; 50 mg/kg IV bid (q12h) x1, mouse No. 5, Day 0 (first)",15 g
same,Body Weight,"[2]; 50 mg/kg IV bid (q12h) x1, mouse No. 5, Day 1",14 g
same,Body Weight,"[2]; 50 mg/kg IV bid (q12h) x1, mouse No. 6, Day 0 (first)",16 g
same,Body Weight,"[2]; 50 mg/kg IV bid (q12h) x1, mouse No. 6, Day 0 (second)",16 g
same,Body Weight,"[2]; 50 mg/kg IV bid (q12h) x1, mouse No. 6, Day 1",16 g
same,mortality,[2]; 100 mg/kg IV,fatal in the first mouse
same,well tolerated dose,"[2]; mice, IV BID q12h",up to 25 mg/kg
same,Maximum Tolerated Dose (MTD),"[2]; neutropenic female BALB/c mice, IV BID q12h, n = 3 per dose",25 mg/kg
daptomycin,volume of distribution,[3],0.1 L/kg
